# Test results published in patent publication US20170273917A1, “NMDA RECEPTOR ANTAGONISTS FOR TREATING GAUCHER DISEASE” (Yeda Research and Development Co. Ltd., priority 2014, published 2017).
# Tests used:
# [1] = tested on: GlcCer, GlcSo, GalCer, GalSo levels in the brain; assay: Sphingolipid analysis (LC-ESI-MS/MS) of brains of treated mice; assay type: in vivo, mouse; conditions: P18
# Procedure: Sphingolipid analysis—LC-ESI-MS/MS was performed using an ABI 4000 quadrupole-linear ion trap mass spectrometer as previously described (Farfel-Becker et al. Hum Mol Genet. 2014; 23(4):843-54). The sphingolipid internal standards were obtained from Avanti Polar Lipids (Alabaster, Ala., USA).
# In the next step, the consequences of GBA1 inhibition, GlcCer accumulation, was analyzed. As expected, CBE-treated mice presented higher levels of GlcCer in the brain in comparison to the controls. The average elevation in GlcCer levels in CBE-treated brains was 3.7-fold compared to PBS-treated mice (FIG. 3C). C18, the most abundant GlcCer species in the brain, was the main GlcCer species elevated (not shown). Importantly, there was no correlation between the levels of GlcCer in the brain and life spans either in the PBS(R^2=0.1441, data not shown) or CBE conditions (R^2=0.0569, FIG. 3C). There was also no correlation between the change in GlcCer levels in each strain and the life spans (R^2=0.0311, data not shown). In addition, no correlation was found between each individual GlcCer subspecies (C14, C16, C18:1, C18, C20, C22, C24:1, C24, C26:1, and C26) and life spans under PBS and CBE conditions (data not shown).
# Glucosylsphingosine (GlcSo) is another lipid known to be elevated in GD and it has been proposed as a GD biomarker (Rolfs et al. PLoS One. 2013 Nov. 20; 8(11):e79732). An average elevation of ˜36-fold in GlcSo levels was found in the CBE-treated brains as compared to the controls (FIG. 3D). The potential correlation between GlcSo levels and the life spans of mice was explored—no correlation was found either under PBS(R^2=0.068, data not shown), or in the CBE-treated brains (R^2=0.0013, FIG. 3D). Similarly to the other lipids, there was no correlation between the change in GlcSo levels and mice life spans (R^2=0.0775, data not shown).
# In addition, GalCer and GalSo levels were analyzed in the brains of the treated mice (FIGS. 3E-3F).
# [2] = tested on: CD68-positive cells in cortical layer V; assay: Immunohistochemistry of CD68-positive cells in cortical layer V of the brain; assay type: in vivo, mouse
# Procedure: Immunohistochemistry—Mice were sacrificed and whole brains were fixed in 4% paraformaldehyde:PBS overnight at 4° C. Tissues were washed in PBS and sectioned with a microtome. Forty micrometer coronal sections were processed free floating in 2% BSA, 0.2% Triton X-100, PBS through all blocking, antibody incubation, and wash steps. Sections were incubated overnight at 4° C. with primary anti rat CD68 (AbD Serotec, Oxford, UK; 1:1000). Following washes, sections were incubated with secondary Cy2-conjugated donkey anti-rat antibody (1:200, Jackson). The presence of CD68-positive cells in cortical layer V of the brain was analyzed using an epifluorescent microscope (Zeiss).
# To verify the results of Example 1, the presence of CD68-positive cells in the cortical layer V of the brain was analyzed in two exemplary strains, AKR/J (average mortality on day 24) and BTBR T^+ITPR3TF/J (100% mortality on day 199).
# Grin2b = assay: Cortical Grin2b mRNA levels by qPCR; assay type: in vivo, mouse; conditions: 10 days CBE vs PBS; short living (A/J, C57BL6/JolaHsd) and long living (NZW, FVB) strains
# Procedure: RNA extraction and quantitative PCR Following treatment, mice were sacrificed and their brains removed, placed on a Young Mouse Brain Slicer Matrix (BSMYS001-1, Zivic instruments, Pittsburgh, Pa., USA) and cut into 1 mm coronal sections. The cerebral cortex was separated using a spatula and snap-frozen in liquid N2 and stored at −80° C. Total RNA was isolated using the RNeasy mini kit (Qiagen GmbH, Hilden, Germany) according to manufacturer's instructions. Quantitative polymerase chain reaction (Q-PCR) was performed using PerfeCTa SYBR Green FastMix (Quanta BioSciences, Gaithersburg, Md., USA) and an ABI Prism 7300 Sequence Detection System (Applied Biosystems, Foster City, Calif., USA). […] Fold-change in mRNA levels was calculated using the comparative cycle threshold method using TATA box binding protein (TBP) for normalization. P-values were calculated using a two-tailed, two-independent sample Student's t-test. […]
# Based on the predictive studies described above, the involvement of Grin2b in the pathogenesis of neuropathic GD was evaluated. […] Since non-coding SNPs can regulate the expression of quantitative trait locus (QTL), the mRNA levels of Grin2b were determined by qPCR. […] The transcript levels was determined in 2 short living (A/J and C57BL6/JolaHsd) and 2 long living strains (NZW and FVB) 10 days following PBS or CBE treatment.
# rat hippocampal neurons = rat hippocampal neurons treated with CBE; high concentrations of glutamate; in vitro; cited from earlier work
smiles,measurement,setting,value
"O[C@H]1[C@H](O)[C@@H](O)[C@@H]2O[C@@H]2[C@@H]1O [CBE, Conduritol-β-epoxide]",average elevation in GlcCer levels in the brain,[1]; CBE-treated brains compared to PBS-treated mice,3.7 fold
same,average elevation in GlcSo levels in the brain,[1]; CBE-treated brains compared to controls,~36 fold
same,GalCer levels in the brain,[1]; CBE-treated mice vs PBS,no elevation
same,GalSo levels in the brain,[1]; CBE-treated mice vs PBS,no elevation
same,"brain pathology (CD68-positive cells, cortical layer V)","[2]; AKR/J mice treated with CBE, sacrificed P22",overt brain pathology
same,"brain pathology (CD68-positive cells, cortical layer V) and mortality","[2]; BTBR T+ITPR3TF/J mice treated with CBE, sacrificed P208",less sensitive to CBE both in terms of mortality and brain pathology
same,"Grin2b expression levels (cortical mRNA, qPCR)",Grin2b,increased only in the short-living strains
same,sensitivity of neurons to glutamate toxicity,rat hippocampal neurons,more sensitive to the toxic effects of high concentrations of glutamate
